Test results taken from patent US20050089473A1, “Potassium channel mediated delivery of agents through the blood-brain barrier” (Cedars-Sinai Medical Center, priority 2003, published 2005).
Counter-ions that a name gives are not always drawn.

Key:
[1] = test system: metastatic breast brain tumors; experiment: [14C]AIB uptake in metastatic breast brain tumor model; assay type: in vivo, rat; conditions: intravenous co-injection
[2] = test system: metastatic lung brain tumors; experiment: [14C]AIB uptake in metastatic lung brain tumor model; assay type: in vivo; conditions: intravenous co-injection
[3] = Physiological measurements during BTB permeability determination; assay type: in vivo, rat
Method: All animal experiments were conducted in accordance with policies set by the Institutional Animal Care and Usage Committee and NIH guidelines. A rat syngeneic tumor model was prepared using female Wistar rats and a human-tumor xenograft model in athymic nude rats weighing 180-200 g were prepared for the BBB/BTB permeability studies. Although brain tumor blood vessel development is rapid in rats compared to humans, this variable should not affect the findings or conclusions because the study analyzes the response of blood vessels, regardless of how rapidly they developed, to vasomodulators. The optimum number of tumor cells and incubation period for in vivo tumor growth was determined in separate experiments. Rat glioma (RG2) cells (1×10^5) in 5 μl of medium with 1.2% methylcellulose were injected into the basal ganglia of Wistar rats, while nude rats were injected with glioblastoma multiforme (GBM) primary cells (5×10^5). The coordinates were 5-mm lateral to the bregma and 4.5 mm deep to the basal ganglia. Seven days (for RG2 tumor) and 3-4 weeks (for GBM) after tumor implantation, the rats were prepared for permeability study as described by (Ningarsj, N. S., Rao, M., Hashizume, K., Asotra, K., and Black, K. L. Regulation of blood-brain tumor barrier permeability by calcium-activated potassium channels J. Pharmacol. Exp. Ther., 301:838-851, 2002; Ningaraj, N. S., Rao, M., and Black, K. L. Calcium-dependent potassium channels as a target protein ir. the modulation of blood-brain humor barrier. Drug News and Perspectives, 16:1-8, 2003). In regional permeability studies, 5 min after the start of the intracarotid (i.c.) infusion, 100 μCi/kg of [^14C] AIB, [^14C] dextran or [^14C] carboplatin to 1 ml phosphate buffer saline (PBS) was injected as an intravenous (i.v.) bolus within a 15 second period. To determine whether the infusion of vasomodulators would affect cerebral blood flow (CBF) at the tumor area, Cerebral Laser-Doppler Flowmetry (LDF) using a Laser-Doppler (DRT4, Moore Instruments Ltd., England) equipped with a DP3 optical (1 mm diameter) probe during 15 min i.c. infusion of vasomodulators in some rats (n=3/group) was used as described in Ningarsj, N. S., Rao, M., Hashizume, K., Asotra, K., and Black, K. L. Regulation of blood-brain tumor barrier permeability by calcium-activated potassium channels J. Pharmacol. Exp. Ther., 301:838-851, 2002; and Ningaraj, N. S., Rao, M., and Black, K. L. Calcium-dependent potassium channels as a target protein ir. the modulation of blood-brain humor barrier. Drug News and Perspectives, 16:1-8, 2003. Rats with abnormal CBF, blood gases or blood pressure were excluded from the study.
The physiological parameters were determined either before or during vasomodulator infusion. The values are mean±SD of n>4 rats, except for cerebral blood flowmetry (CBF) where three representative rats per group were used. pH is arterial pH; PaO2 is arterial oxygen; PaCO2 is arterial carbon dioxide; and MAP is mean arterial blood pressure.

GBM xenograft = experiment: In vivo BTB permeability (Ki by QAR) in GBM-xenograft nude rat model
Method: All animal experiments were conducted in accordance with policies set by the Institutional Animal Care and Usage Committee and NIH guidelines. A rat syngeneic tumor model was prepared using female Wistar rats and a human-tumor xenograft model in athymic nude rats weighing 180-200 g were prepared for the BBB/BTB permeability studies. Although brain tumor blood vessel development is rapid in rats compared to humans, this variable should not affect the findings or conclusions because the study analyzes the response of blood vessels, regardless of how rapidly they developed, to vasomodulators. The optimum number of tumor cells and incubation period for in vivo tumor growth was determined in separate experiments. Rat glioma (RG2) cells (1×10^5) in 5 μl of medium with 1.2% methylcellulose were injected into the basal ganglia of Wistar rats, while nude rats were injected with glioblastoma multiforme (GBM) primary cells (5×10^5). The coordinates were 5-mm lateral to the bregma and 4.5 mm deep to the basal ganglia. […]
The unilateral transfer constant, Ki (μl/g/min), which is an initial rate for blood-to-brain transfer of a radiotracer, was calculated as described by Ohno et al. (Ohno, K., Pettigrew, K. O., and Rapsport, S. T. Lower limits of cerebrovascular permeability to […] in the conscious rat. Am. J. Physiol., 253: H299-H307, 1978). […]

KATP channels = experiment: Membrane potential assay of KATP channel activity; assay type: cell-based, human; conditions: RBEC, HBMVEC, RG2 and GBM cells
Method: Functional activities of putative KATP channels in HBMVEC and GBM cells were measured by detecting changes in voltage across the cell membrane as described earlier (Ningarsj, N. S., Rao, M., Hashizume, K., Asotra, K., and Black, K. L. Regulation of blood-brain tumor barrier permeability by calcium-activated potassium channels J. Pharmacol. Exp. Ther., 301:838-851, 2002). A membrane potential assay kit (Molecular Devices, Sunnyvale, Calif.) provided a fast, simple and consistent mix-and-read procedure. In brief, HBMVEC and GBM cells obtained from cell passages 2-5 was suspended in 5 ml of growth medium. In two separate experiments, the cell density was adjusted to 1×10^3 cells/well and coated in sterile, clear bottom, blank 96-well plates (Corning, Inc., Acton, Mass.), pre-coated with poly L-Lysine, and allowed to achieve a monolayer within 24 h. The monolayer cells were incubated with the membrane potential assay kit reagents for 30 min and read directly by FLEXstation. The anionic pchemiometric dye that traverses between cells and the extracellular solution in a membrane potential-dependent manner serves as an indicator of vasomodulator-induced voltage changes across the cell membrane. […] Additionally, the effects of the optimum dose (10 μM) of MS and glibenclamide (100 nM) on KATP channels activity in HBMVEC and GBM cells were determined.

[4] = before or during vasomodulator infusion, mean±SD

Compound: Nc1cc(N2CCCCC2)nc(N)[n+]1OS(=O)(=O)[O-] [MS, minoxidil sulfate]
- Level of [14C]AIB in brain tumor tissue versus saline [1]: approximately three times as great
- Level of [14C]AIB surrounding the tumor and in contralateral brain versus vehicle [1]: does not differ significantly
- Increase of [14C]AIB uptake to the tumor [2]: approximately three-fold
- PaCO2 [3, 4]: 45 ± 1 mm Hg
- PaO2 [3, 4]: 90 ± 5 mm Hg
- pH (arterial pH) [3, 4]: 7.38 ± 0.01
- Effect on CBF ([3]; i.c. 30 μg/kg/min, laser Doppler): not to significantly affect CBF
- CBF (% change vs. vehicle) ([3]; laser-Doppler flowmetry, three rats per group): 8 ± 3 % change vs. vehicle
- BTB permeability (Ki) (GBM xenograft; GBM xenograft nude rat, i.c. MS 30 μg/kg/min, glibenclamide 5 μg/kg/min for 15 min): 52 ± 8 µL/g/min
- BBB permeability in normal brain surrounding tumor or normal contralateral brain (GBM xenograft; i.c. infusion): did not significantly affect BBB permeability
- Membrane potential dye fluorescence intensity (KATP channels): dose-dependent decrease
